Where a SMILES comes first, the peptide text is derived from it. The star is where a group is joined. X1 = CC(C)CCC[C@@H](C)[C@H]1CC[C@H]2[C@@H]3CC=C4C[C@@H](OC(=O)C*)CC[C@]4(C)[C@H]3CC[C@]12C Bounds are passed on as bounds.

The text below walks through data of US8629101B2, “Cholesterol derivatives of inhibitors of viral fusion” (priority 2007, dated 2014).

One data set relates to HIV-1 (HXB2). In kind it is cell-based. The note with it: read-out: IC50 antiviral activity. The text has this:
The antiviral activity of a peptide from the membrane-proximal external region (MPER) of gp41, which also includes the epitope of monoclonal antibody (MAb) 2F5, […] […] Accordingly, when peptide […] […] Moreover, the nature of the lipid was important, since a bis-Lys(N^ε-Palmitoyl) group was ineffective. Details of the assay used can be found in Joyce et al, J. Biol Chem., 2002, 277, 45811-45820.

The test system of data set [1] is HIV-HXB2.
Data set [2] concerns HIV-HXB2. Kind of data set: pre-incubation of peptide with P4-2/R5 cells with/without wash, then HIV-HXB2 infection. In kind it is cell-based, HIV-1. The note with it: with wash versus no wash.
Procedure: After 48 h, the antiviral activities of the residual peptides that survive the washing steps were determined by measuring the f3-galactosidase activities within lysed cells as described above.
Another data set deals with multiple HIV-1 isolates. Kind of data set: single-cycle infectivity assay across the panel of viral strains. The settings on record: variety of viral strains.
The nature of data set [3]: pharmacokinetics after intraperitoneal injection into the mouse. The note with it: ip. In kind it is in vivo. The text has this: Effect of lipid derivatization on the pharmacokinetic properties of C34-chol. In addition to providing improved antiviral potency, derivatization with cholesterol also extends the half-life of the peptide in vivo.

Procedure for multiple HIV-1 isolates: HIV-1 Infectivity Assay (31). P4-2/R5 cells (HeLa cells expressing endogenous CXCR4 and stably transfected to express CD4 and CCR5 which also contain an integrated β-galactosidase reporter gene under control of an HIV LTR promoter) maintained in phenol red-free Dulbecco's modified Eagle's medium, 10% fetal bovine serum, 1% penicillin/streptomycin were seeded in 96-well plates at 2.5×10^3 cells/well and infected the following day with the HXB2 strain (and a variety of other strains in some cases) of HIV-1 (Advanced Biotechnology Inc., Bethesda, Md.) in the presence of titrations of the test inhibitory peptides at 37° C. After 48 h incubation with both virus and inhibitory peptides, cells were lysed and β-galactosidase was detected using Gal Screen™ chemiluminescent substrate (Applied Biosystems, Foster City, Calif.) according to the manufacturer's instructions. Data were obtained using a Dynex luminometer and IC50 values were calculated by KaleidaGraph.

As a reminder, the IC50 is the point on the concentration scale where inhibition reaches its midpoint. Regarding `CC(=O)N[C@@H](CCC(=O)O)C(=O)N[C@@H](CC(C)C)C(=O)N[C@@H](CC(C)C)C(=O)N[C@@H](CCC(=O)O)C(=O)N[C@@H](CC(C)C)C(=O)N[C@@H](CC(=O)O)C(=O)N[C@@H](CCCCN)C(=O)N[C@@H](Cc1c[nH]c2ccccc12)C(=O)N[C@@H](C)C(=O)N[C@@H](CO)C(=O)N[C@@H](CC(C)C)C(=O)N[C@@H](Cc1c[nH]c2ccccc12)C(=O)N[C@@H](CSCC(=O)O[C@H]1CC[C@@]2(C)C(=CC[C@H]3[C@@H]4CC[C@H]([C@H](C)CCCC(C)C)[C@@]4(C)CC[C@@H]32)C1)C(N)=O` (Ac-ELLELDKWASLWC(X1)-NH2), the IC50 in the data set with HIV-1 (HXB2) was 5850 nM.

Regarding `CC[C@H](C)[C@H](NC(=O)[C@H](CC(C)C)NC(=O)[C@H](CO)NC(=O)[C@H](Cc1c[nH]cn1)NC(=O)[C@@H](NC(=O)[C@H](CC(C)C)NC(=O)[C@H](CO)NC(=O)[C@@H](NC(=O)[C@H](Cc1ccc(O)cc1)NC(=O)[C@H](CC(N)=O)NC(=O)[C@H](CC(N)=O)NC(=O)[C@@H](NC(=O)[C@H](CCC(=O)O)NC(=O)[C@H](CCCNC(=N)N)NC(=O)[C@H](CC(=O)O)NC(=O)[C@H](Cc1c[nH]c2ccccc12)NC(=O)[C@H](CCC(=O)O)NC(=O)[C@H](CCSC)NC(=O)[C@H](Cc1c[nH]c2ccccc12)NC(=O)CNC(=O)[C@H](CO)NC(=O)CNC(=O)[C@H](CSCC(=O)O[C@H]1CC[C@@]2(C)C(=CC[C@H]3[C@@H]4CC[C@H]([C@H](C)CCCC(C)C)[C@@]4(C)CC[C@@H]32)C1)NC(C)=O)[C@@H](C)CC)[C@@H](C)O)[C@@H](C)CC)C(=O)N[C@@H](CCC(=O)O)C(=O)N[C@@H](CCC(=O)O)C(=O)N[C@@H](CO)C(=O)N[C@@H](CCC(N)=O)C(=O)N[C@@H](CC(N)=O)C(=O)N[C@@H](CCC(N)=O)C(=O)N[C@@H](CCC(N)=O)C(=O)N[C@@H](CCC(=O)O)C(=O)N[C@@H](CCCCN)C(=O)N[C@@H](CC(N)=O)C(=O)N[C@@H](CCC(=O)O)C(=O)N[C@@H](CCC(N)=O)C(=O)N[C@@H](CCC(=O)O)C(=O)N[C@@H](CC(C)C)C(=O)N[C@@H](CC(C)C)C(N)=O` [Chol-C34], in the data set with HIV-HXB2 [1] (cholesterol at the N-terminus), the “decrease of antiviral activity compared to underivatized C34” value is recorded as 50 fold.

As usually defined, the AUC(0-t) is the area under the concentration-time curve up to a stated or last time point. A lower AUC(0-t) goes with less exposure. In general, Cmax refers to the peak of the concentration-time curve. The term Tmax denotes the time at which the peak concentration occurs. Take `CC[C@H](C)[C@H](NC(=O)[C@H](CC(C)C)NC(=O)[C@H](CO)NC(=O)[C@H](Cc1c[nH]cn1)NC(=O)[C@@H](NC(=O)[C@H](CC(C)C)NC(=O)[C@H](CO)NC(=O)[C@@H](NC(=O)[C@H](Cc1ccc(O)cc1)NC(=O)[C@H](CC(N)=O)NC(=O)[C@H](CC(N)=O)NC(=O)[C@@H](NC(=O)[C@H](CCC(=O)O)NC(=O)[C@H](CCCNC(=N)N)NC(=O)[C@H](CC(=O)O)NC(=O)[C@H](Cc1c[nH]c2ccccc12)NC(=O)[C@H](CCC(=O)O)NC(=O)[C@H](CCSC)NC(=O)[C@H](Cc1c[nH]c2ccccc12)NC(C)=O)[C@@H](C)CC)[C@@H](C)O)[C@@H](C)CC)C(=O)N[C@@H](CCC(=O)O)C(=O)N[C@@H](CCC(=O)O)C(=O)N[C@@H](CO)C(=O)N[C@@H](CCC(N)=O)C(=O)N[C@@H](CC(N)=O)C(=O)N[C@@H](CCC(N)=O)C(=O)N[C@@H](CCC(N)=O)C(=O)N[C@@H](CCC(=O)O)C(=O)N[C@@H](CCCCN)C(=O)N[C@@H](CC(N)=O)C(=O)N[C@@H](CCC(=O)O)C(=O)N[C@@H](CCC(N)=O)C(=O)N[C@@H](CCC(=O)O)C(=O)N[C@@H](CC(C)C)C(=O)N[C@@H](CC(C)C)C(=O)NCC(=O)N[C@@H](CO)C(=O)NCC(=O)N[C@@H](CSCC(=O)O[C@H]1CC[C@@]2(C)C(=CC[C@H]3[C@@H]4CC[C@H]([C@H](C)CCCC(C)C)[C@@]4(C)CC[C@@H]32)C1)C(N)=O` [Peptide C34-Chol]: the IC50 fold change in the data set on HIV-HXB2 [2] stood at 7 fold. Also, in the data set on HIV-HXB2 [1], the “increase of antiviral potency over C34 and C34-Aceta” value amounted to 50 fold; the “potency relative to enfuvirtide/FUZEON” value is recorded as about 100 fold. Moreover, in the data set on multiple HIV-1 isolates, the “breadth of antiviral response” value is listed as “comparable IC50 in all strains” and the “potency relative to underivatized or cys-alkylated C34 across the whole panel” value is about 50 fold. Further, in data set [3] ([…], 24 h, versus IC50 7 pM), the “plasma concentration at 24 h as multiple of the measured IC50” value is reported as over 500 fold. For the same compound, in data set [3] (plasma, 3.5 mg/kg), the area under the curve AUC(0-t) was determined as 11.5 µM·h, the peak level (Cmax) was 3100 nM and the Tmax is 4 h. In addition, in data set [3] (plasma, 3.5 mg/kg, read-out: CI/F), the CL/F was 0.6 mL/min/kg. The level at time molar at 24 h in data set [3] (plasma, intraperitoneal, 3.5 mg/kg, 24 h, read-out: plasma concentration still detectable after 24 h) was about 60 nM.

For `CCCCCCCCCCCCCCCC(=O)NCCCC[C@H](NC(=O)CNC(=O)[C@H](CO)NC(=O)CNC(=O)[C@H](CC(C)C)NC(=O)[C@H](CC(C)C)NC(=O)[C@H](CCC(=O)O)NC(=O)[C@H](CCC(N)=O)NC(=O)[C@H](CCC(=O)O)NC(=O)[C@H](CC(N)=O)NC(=O)[C@H](CCCCN)NC(=O)[C@H](CCC(=O)O)NC(=O)[C@H](CCC(N)=O)NC(=O)[C@H](CCC(N)=O)NC(=O)[C@H](CC(N)=O)NC(=O)[C@H](CCC(N)=O)NC(=O)[C@H](CO)NC(=O)[C@H](CCC(=O)O)NC(=O)[C@H](CCC(=O)O)NC(=O)[C@@H](NC(=O)[C@H](CC(C)C)NC(=O)[C@H](CO)NC(=O)[C@H](Cc1c[nH]cn1)NC(=O)[C@@H](NC(=O)[C@H](CC(C)C)NC(=O)[C@H](CO)NC(=O)[C@@H](NC(=O)[C@H](Cc1ccc(O)cc1)NC(=O)[C@H](CC(N)=O)NC(=O)[C@H](CC(N)=O)NC(=O)[C@@H](NC(=O)[C@H](CCC(=O)O)NC(=O)[C@H](CCCNC(=N)N)NC(=O)[C@H](CC(=O)O)NC(=O)[C@H](Cc1c[nH]c2ccccc12)NC(=O)[C@H](CCC(=O)O)NC(=O)[C@H](CCSC)NC(=O)[C@H](Cc1c[nH]c2ccccc12)NC(C)=O)[C@@H](C)CC)[C@@H](C)O)[C@@H](C)CC)[C@@H](C)CC)C(N)=O` [Peptide C34-Pam], in the data set with HIV-HXB2 [1], the “antiviral activity relative to underivatized C34” value was “comparable activity to underivatized C34”.

Regarding enfuvirtide, in the data set with HIV-HXB2 [1] (read-out: IC50 viral infectivity, mean ± SEM of three independent experiments (Table 2)), the IC50 came to 0.692 ± 0.245 nM.
